Data taken from patent publication US7691416B2, “Methods of treating vascular disease” (priority 2002, dated 2010).
Entries after “also recorded” stand apart in the source; their conditions may differ.

Assays:
[1] = system: ERK-1 and -2; test: Western blot of phosphorylated ERK in SMC; assay type: cell-based; settings: SMC exposed to CO (250 ppm)
Excerpt: (§1) Animals. Male (250-350 g) Brown Norway rats (RT1^n) were used as aortic graft donors and male (250-350 g) Lewis rats (RT11) as recipients. Dawley (400-450 g) rats were used in the balloon injury model. Adult male C57BL/6, C57/S129, p21^−/− and p53^−/− null mice were purchased from Jackson Laboratory (Bar Harbor, Me.). mkk3^(−/−) null mice were generated as described Lu et al. (EMBO. 18:1845-1857 (1999)). The inos^−/− and enos^−/− mice were bred at the University of Pittsburgh. Aortic transplant model. Aortic transplantation was performed as described in Shimizu et al. (Nat. Med. 7:738-741 (2001)). Briefly, 3 to 4 cm of descending aorta was harvested from the donor and implanted between the renal arteries and the aortic bifurcation of the recipient. Both edges of the native abdominal aorta were ligated. Balloon injury model. Balloon angioplasty was carried out as described in Murakami et al. (Atherosclerosis 157:361-368 (2001)). […] [^3H]thymidine incorporation was measured by scintillation spectroscopy and presented as mean counts/min/well. […] Areas from eight to ten captured images were calculated using digital imaging software as number of pixels corresponding to those areas. Twenty-four to forty-eight sections from each group were statistically analyzed with SPSS software version 10. […]

[2] = system: rat aortic SMC; test: Flow cytometry cell cycle analysis; assay type: cell-based; settings: CO 250 ppm, 24 hours
Excerpt: as §1

[3] = system: PAI-1; test: PAI-1 protein in transplanted aortas (immunohistology and Western blot); assay type: in vivo, rat; settings: 56 days after transplantation
Excerpt: as §1

[4] = system: cGMP; test: cGMP immunoassay (EIA) of SMC lysates; assay type: cell-based, mouse; settings: CO 250 ppm for 8 h or 16 h
Excerpt: as §1

[5] = system: PAI-1; test: Western blot of PAI-1 in SMC; assay type: cell-based; settings: CO 250 ppm, 24 or 48 hours
Excerpt: as §1

[6] = system: iNOS and eNOS; test: Western blot of NOS isoforms in SMC; assay type: cell-based, mouse; settings: CO 250 or 10,000 ppm, varying amounts of time
Excerpt: as §1

Compound: [C-]#[O+] [CO, carbon monoxide]
- Activation of ERK-1 and -2 [1]: did not modulate
- Cell cycle distribution [2]: accumulated in the G0/G1 phase
- PAI-1 protein expression versus allogeneic aortas transplanted in the absence of CO [3]: similar; also recorded: No decrease
- Intracellular cGMP levels [4]: increased
- PAI-1 protein [5]: slightly increased
- Induction of NOS isoforms [6]: no induction
